Assay results reported in patent US20240156790A1, “COMPOUNDS, COMPOSITIONS, AND METHODS FOR MODULATING FERROPTOSIS AND TREATING EXCITOTOXIC DISORDERS” (THE TRUSTEES OF COLUMBIA UNIVERSITY IN THE CITY OF NEW YORK, priority 2018, published 2024).
Entries after “also recorded” stand apart in the source; their conditions may differ. One block for each compound: values may come before it.

Tests used:
HT-1080 cells [1] = assay: Rescue activity of selected Fer-1 analogs, dose-response in HT-1080 cells (cell titer glo); format: cell-based
Description: Selected Fer-1 analogs containing a pyridine moiety (FIG. 4) were tested to examine their efficacy and overall potency in inhibiting ferroptosis. For each of these compounds, dose-response curves were generated in HT-1080 cells looking at the effectiveness of the molecules in inhibiting ferroptosis induced by either 3 μM IKE or 0.2 μM RSL3, Fer-1 was used as a positive control. For each dose-response curve, 1,000 cells/well were seeded in a 384 well plate and allowed to adhere overnight prior to treating with compound from a daughter plate. Cells were treated for 48 hours, unless otherwise noted, prior to viability being analyzed using cell titer glo (40 μL per well). All liquid handling was performed using the BioMek. All samples were prepared in triplicate, unless otherwise noted.

HT-1080 cells [2] = assay: Cell viability assays in HT-1080 cells, ferroptosis induced by IKE or RSL3 (Example 8); format: cell-based; details: for IC50: Homo sapiens, HT-1080, 48 h
Description: Cell culture assays were incubated at 37° C. with 5% CO2. HT-1080 cells were grown in DMEM (Corning) supplemented with 10% FBS (Life Technologies), 1% Penicillin-Streptomycin 10,000 U/mL (Gibco), and 1% MEM Non-Essential Amino Acids Solution 100× (Gibco). For cell viability assays, cells were trypsinized, counted, and seeded into 384-well white polypropylene plates at 1,000 cells/well, unless otherwise specified. After allowing cells to adhere overnight, compounds in DMSO stocks were arrayed in a 16-point dilution series prepared in a mother plate, and treated from a daughter plate, [DMSO]=0.28%. After 24 or 48 h, 50% CellTiter-Glo (Promega) 50% cell culture medium was added to each well and incubated at room temperature with shaking for 15 min. Luminescence was measured using a Victor X5 plate reader (PerkinElmer). All cell viability data were normalized to the DMSO vehicle condition. […] All 384w measurements were performed in triplicate
We first evaluated the efficacy of four pyridine analogs, TH-2-9-1, TH-2-31, TH-2-37-1, and TH-2-37-2, in suppressing ferroptosis induced by IKE and RSL3 in HT-1080 cells. […] We sought to determine whether incorporation of pyridine changed stability in mouse liver microsomes.

HT-1080 cells [3] = assay: Rescue activity of Fer-1 analogs: inhibition of erastin-, IKE- or RSL3-induced death (Alamar Blue viability); format: cell-based; details: Homo sapiens
Description: HT-1080 cells are cultured in DMEM containing 10% fetal bovine serum, 1% supplemented non-essential amino acids and 1% pen/strep mixture (Gibco) and maintained in a humidified environment at 37° C. with 5% CO2 in a tissue culture incubator. 1,000 HT-1080 cells are seeded per well in duplicate 384-well plates (Corning) using a BioMek FX liquid handling robot (Beckman Coulter). The next day, the medium is replaced with 36 μL of medium containing 10 μM erastin with 4 μL of medium containing a dilution series (previously prepared) of DMSO, Fer-1 (positive control) or Fer-1 analogs. […] Cells are incubated a further 6 hours and then the Alamar Blue fluorescence intensity recorded using a Victor 3 platereader (PerkinElmer)(ex/em 530/590). All experiments are performed at least twice and the background (no cells)-subtracted Alamar Blue values for each combination are averaged between replicates. The same procedure was repeated by replacing erastin (10 μM) with IKE (3 μM) or RSL3 (0.2 μM).

[4] = Microsomal stability, mouse liver microsomes (Table 1); format: in vitro ADME, Mouse: CD1; details: liver microsomes
Description: Each compound (1 μM) is incubated with mouse plasma, for 4 hours at 37° C., with shaking at 100 rpm. The concentration of compound in the buffer and plasma chambers is determined using LC-MS/MS. Metabolism of each compound is predicted using Sites of Metabolism (Schrodinger Suite), which combines intrinsic reactivity analysis (Hammett-Taft) with induced fit docking against 2C9, 2D6 and 3A4. This approach identifies 90% of known metabolism sites and has a false positive rate of 17%. The in vitro metabolic stability of each compound in mouse liver microsomes is determined. Pooled mouse liver microsomes are prepared and stored at −80° C. until needed. […]

[5] = tested on: HT-1080 fibrosarcoma cells; details: cited from earlier work
[6] = Microsomal stability, rat (Table 1); format: in vitro ADME; details: Rat: Sprague Dawley; for half-life: liver microsomes, read-out: Microsomal Stability t1/2 (converted)
[7] = Microsomal stability, human liver microsomes (Table 1); format: in vitro ADME; details: Human: Pooled, 50 donors; for half-life: liver microsomes, read-out: Microsomal Stability t1/2 (converted)
[8] = Microsomal stability, dog (Table 1); format: in vitro ADME; details: liver microsomes; Dog: Beagle; read-out: Microsomal Stability t1/2
Description: Each compound (1 μM) is incubated with mouse plasma, for 4 hours at 37° C., with shaking at 100 rpm. The concentration of compound in the buffer and plasma chambers is determined using LC-MS/MS. Metabolism of each compound is predicted using Sites of Metabolism (Schrodinger Suite), which combines intrinsic reactivity analysis (Hammett-Taft) with induced fit docking against 2C9, 2D6 and 3A4. This approach identifies 90% of known metabolism sites and has a false positive rate of 17%. The in vitro metabolic stability of each compound in mouse liver microsomes is determined. Pooled mouse liver microsomes are prepared and stored at −80° C. until needed. Compound stability in liver microsomes is measured at 0, 15, 30, 45 and 60 minutes in duplicate, using LC-MS/MS analysis.

[9] = HT-1080, ^a 50% viability, HT-1080 cells treated with 10 μM erastin
[10] = HT-1080, ^b 50% viability, HT-1080 treated with 3 μM IKE
[11] = HT-1080, ^c 50% viability, HT-1080 treated with 0.2 μM RSL3
[12] = CD1, mouse, Mouse: CD1, read-out: Microsomal Stability t1/2

SMILES: CC(C)(C)OC(=O)c1ccc(NC23CC4CC(CC(C4)C2)C3)c(N=Cc2cncnc2)c1 [SRS16-86]
decrease in potency relative to SRS11-92 [5]: > 50 fold | decrease in potency relative to fer-1 [5]: ~4 fold

SMILES: CCCC(CC)Nc1ccc(C(=O)OC(C)(C)C)cc1Nc1ccccc1 (stereo not shown) [CFI-4081]
Microsomal Stability t1/2 [7]: > 120 min

SMILES: Nc1cc(-c2ncco2)ccc1NC1CCCCC1 [CFI-4051]
half-life [6]: 30 to 60 min | half-life [7]: > 120 min | EC50 (HT-1080 cells [3]; [9]): 36 nM | EC50 (HT-1080 cells [3]; [10]): 13 nM | EC50 (HT-1080 cells [3]; [11]): 5 nM | half-life [4, 12]: 3.2 to 3.3 min | half-life [8]: > 120 min

SMILES: Cc1noc(-c2ccc(NC34CC5CC(CC(C5)C3)C4)c(NC3CCCCC3)c2)n1 [CFI-4083]
half-life [7]: > 120 min | half-life ([4]; CD1 (mouse), mouse, human, in either mouse or human liver microsomes, read-out: T1/2): > 120 min | half-life [4, 12]: > 120 min

SMILES: CCOC(=O)c1ccc(NC2CCCCC2)c(NCc2ccccc2)c1 [SRS11-92]
potency, in words [5]: low nanomolar potency

The next lines start with results.

IC50 (HT-1080 cells [2]; ^b 2 μM IKE, 48 hours, 1,000 cells/well): 16.9 nM | IC50 (HT-1080 cells [2]; ^c 0.2 μM RSL3, 48 hours, 1,000 cells/well): 2.7 nM | half-life [4, 12]: 7.7 min
SMILES: COc1cnc(NC2CCCCC2)c(NC2CCCCC2)c1 [TH-2-9-1, N^2,N^3-dicyclohexyl-5-methoxypyridine-2,3-diamine]
death observed with RSL3 (HT-1080 cells [1]; 0.2 μM RSL3, inhibitor range 10 μM-0 μM): No death was observed | potency compared, in words (HT-1080 cells [1]; 3 μM IKE, 0.2 μM RSL3, 10 μM erastin): an order of magnitude more potent than Fer-1 for all inducers beyond RSL3; also recorded: the most potent analog for RSL3 alone | rescue against IKE and erastin (HT-1080 cells [1]; inhibitor 1 μM-0 μM, 3 μM IKE, 10 μM erastin, 48 hours): ~50% | potency relative to fer-1 at suppressing ferroptosis, in words (HT-1080 cells [2]): slightly less potent than fer-1 in inhibiting IKE-induced death | EC50 (HT-1080 cells [3]; [9]): 0.1 nM | EC50 (HT-1080 cells [3]; [10]): 0.21 nM | EC50 (HT-1080 cells [3]; [11]): 0.2 nM

half-life [6]: 30 to 60 min | half-life [7]: > 120 min | half-life [4, 12]: 16.2 to 16.6 min | half-life [8]: > 120 min
SMILES: CC(C)(C)OC(=O)c1cc(N)c(NC23CC4CC(CC(C4)C2)C3)cc1Cl [CFI-A3]
EC50 (HT-1080 cells [3]; [10]): 26 nM | EC50 (HT-1080 cells [3]; [11]): 6 nM

Microsomal Stability t1/2 [6]: ~20 min | Microsomal Stability t1/2 [7]: > 120 min
SMILES: C=C(/C=C\CNC12CC3CC(CC(C3)C1)C2)COC(C)(C)C [CFI-A4]
EC50 (HT-1080 cells [3]; [10]): 16 nM | EC50 (HT-1080 cells [3]; [11]): 1 nM
